Data: ChEMBL document CHEMBL3351345, “Design, synthesis, and structure-activity relationships of novel benzothiazole derivatives bearing the ortho-hydroxy N-carbamoylhydrazone moiety as potent antitumor agents” (Eur J Med Chem, 2014)
pEC50, pIC50: −log10 of the molar value.

Legend:
SK-N-SH = assay: Antiproliferative activity against human SK-N-SH cells after 72 hrs by MTT assay; assay type: functional, cell-based
HT-29 = assay: Antiproliferative activity against human HT-29 cells after 72 hrs by MTT assay; assay type: functional, cell-based; conditions: HT-29, 72 h
MDA-MB-231 = assay: Antiproliferative activity against human MDA-MB-231 cells after 72 hrs by MTT assay; conditions: MDA-MB-231, 72 h
[1] = Antiproliferative activity against human MKN45 cells after 72 hrs by MTT assay; assay type: functional, cell-based; conditions: MKN-45, 72 h
NCI-H226 = assay: Antiproliferative activity against human NCI-H226 cells after 72 hrs by MTT assay; assay type: functional, cell-based; conditions: NCI-H226, 72 h
Caspase-3 = target: T1, Caspase-3 (Homo sapiens, UniProt P42574); assay: Induction of procaspase 3 activity (unknown origin) using Ac-DEVD-pNa as substrate after 2 hrs
T1 sequence (P42574 whole entry): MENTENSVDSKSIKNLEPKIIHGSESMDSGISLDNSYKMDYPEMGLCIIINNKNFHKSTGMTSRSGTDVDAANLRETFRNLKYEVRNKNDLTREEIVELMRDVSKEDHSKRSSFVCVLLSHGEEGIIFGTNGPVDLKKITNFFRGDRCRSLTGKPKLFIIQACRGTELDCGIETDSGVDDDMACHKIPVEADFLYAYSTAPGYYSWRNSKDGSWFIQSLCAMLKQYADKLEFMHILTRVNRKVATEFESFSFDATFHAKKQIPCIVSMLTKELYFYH

Caspase-3 (Homo sapiens) = target: T2, Caspase-3 (Homo sapiens) (UniProt P42574); assay: Ratio of PAC1 EC50 to compound EC50 for procaspase 3 activity (unknown origin)
T2 sequence (whole entry): T1 sequence (P42574 whole entry)

| SMILES | pIC50 (SK-N-SH) | pIC50 (HT-29) | pIC50 (MDA-MB-231) | pIC50 [1] | pIC50 (NCI-H226) | pEC50 (Caspase-3) | Ratio EC50 (Caspase-3 (Homo sapiens)) |
| --- | --- | --- | --- | --- | --- | --- | --- |
| CCN(CC)Cc1ccc2nc(NC(=O)N/N=C/c3ccc(OCc4ccccc4Cl)cc3O)sc2c1 | 5.70 | 5.65 | 6.13 | 6.38 | 6.25 |  |  |
| CCN(CC)Cc1ccc2nc(NC(=O)N/N=C/c3ccc(OCc4ccccc4)cc3O)sc2c1 | 5.78 | 5.84 |  |  | 6.06 |  |  |
| CCN(CC)Cc1ccc2nc(NC(=O)N/N=C/c3ccc(OCc4ccc(Cl)cc4Cl)cc3O)sc2c1 | 5.98 | 5.61 | 5.82 | 6.28 | 6.15 |  |  |
| CC1CCN(Cc2ccc3nc(NC(=O)N/N=C/c4ccc(O)cc4O)sc3c2)CC1 | 5.11 | 5.56 | 5.78 | 5.39 | 5.34 |  |  |
| CC(C)(C)c1ccc(COc2ccc(/C=N/NC(=O)Nc3nc4ccc(N5CCOCC5)cc4s3)c(O)c2)cc1 | 6.04 | 6.04 | 5.98 | 6.34 | 6.62 | 4.74 |  |
| CC1CCN(Cc2ccc3nc(NC(=O)N/N=C/c4ccc(OCc5cccc(Cl)c5)cc4O)sc3c2)CC1 | 6.47 | 5.76 | 5.95 | 6.17 | 6.44 | 5.37 |  |
| C=CCc1cccc(/C=N/NC(=O)CN2CCN(Cc3ccccc3)CC2)c1O [PAC-1] | 5.51 | 5.87 | 5.32 | 5.58 | 5.99 | 5.39 |  |
| Cc1ccc(COc2ccc(/C=N/NC(=O)Nc3nc4ccc(CN(C)C)cc4s3)c(O)c2)cc1 | 5.59 | 5.67 | 5.58 | 5.90 | 5.97 |  |  |
| CN(C)Cc1ccc2nc(NC(=O)N/N=C/c3ccc(O)cc3O)sc2c1 | 4.84 | 4.11 | < 4.00 | 5.55 | 5.53 |  |  |
| CCN(CC)Cc1ccc2nc(NC(=O)N/N=C/c3ccc(OCc4ccc(Cl)cc4)cc3O)sc2c1 | 6.13 | 5.99 | 6.21 | 6.27 | 6.37 | 5.30 |  |
| CCN(CC)Cc1ccc2nc(NC(=O)N/N=C/c3ccc(OCc4cccc(Cl)c4)cc3O)sc2c1 | 5.74 | 5.73 | 6.24 | 6.38 | 5.89 |  |  |
| CCN(CC)Cc1ccc2nc(NC(=O)N/N=C/c3ccc(OCc4ccc(C(C)(C)C)cc4)cc3O)sc2c1 | 6.32 | 6.11 | 6.01 | 6.30 | 6.80 | 5.85 | 2.9 |
| O=C(N/N=C/c1ccccc1O)Nc1nc2ccc(N3CCOCC3)cc2s1 | 4.93 | 4.17 | < 4.00 | 5.03 | 5.37 |  |  |
| CCN(CC)Cc1ccc2nc(NC(=O)N/N=C/c3ccc(OCc4csc(Cc5ccc6c(c5)OCO6)n4)cc3O)sc2c1 | 6.32 | 6.14 | 6.26 | 6.29 | 6.85 | 6.60 | 16 |
| CC1CCN(Cc2ccc3nc(NC(=O)N/N=C/c4ccc(OCc5ccc(C(C)(C)C)cc5)cc4O)sc3c2)CC1 | 6.57 | 6.06 | 6.25 | 6.77 | 6.74 | 5.62 |  |
| O=C(N/N=C/c1ccc(OCc2ccc(Cl)cc2)cc1O)Nc1nc2ccc(N3CCOCC3)cc2s1 | 5.86 | 8.74 | 5.35 | 6.54 | 6.59 |  |  |
| O=C(N/N=C/c1ccc(OCc2ccc(Cl)cc2Cl)cc1O)Nc1nc2ccc(N3CCOCC3)cc2s1 | 5.50 | 5.33 | 4.82 | 5.76 | 5.91 |  |  |
| CC1CCN(Cc2ccc3nc(NC(=O)N/N=C/c4ccc(OCc5csc(Cc6ccc7c(c6)OCO7)n5)cc4O)sc3c2)CC1 | 5.90 | 5.95 | 6.06 | 6.26 | 6.09 |  |  |
| CC1CCN(Cc2ccc3nc(NC(=O)N/N=C/c4ccc(OCc5ccc(Cl)cc5)cc4O)sc3c2)CC1 | 5.97 | 6.02 | 6.06 | 6.68 | 6.39 |  |  |

| SMILES | pIC50 (SK-N-SH) | pIC50 (HT-29) | pIC50 (MDA-MB-231) | pIC50 [1] | pIC50 (NCI-H226) | pEC50 (Caspase-3) | Ratio EC50 (Caspase-3 (Homo sapiens)) |
| --- | --- | --- | --- | --- | --- | --- | --- |
| CC1CCN(Cc2ccc3nc(NC(=O)N/N=C/c4ccc(OCc5ccccc5Cl)cc4O)sc3c2)CC1 | 6.07 | 5.99 | 5.64 | 6.12 | 6.10 |  |  |
| O=C(N/N=C/c1ccccc1O)Nc1nc2ccc(CN3CCOCC3)cc2s1 | 5.15 | 4.99 | 4.92 | 5.63 | 5.57 |  |  |
| CN(C)Cc1ccc2nc(NC(=O)N/N=C/c3ccc(OCc4csc(Cc5ccc6c(c5)OCO6)n4)cc3O)sc2c1 | 6.10 | 5.73 | 5.98 | 6.21 | 6.14 |  |  |
| CC1CCN(Cc2ccc3nc(NC(=O)N/N=C/c4ccc(OCc5ccc(Cl)cc5Cl)cc4O)sc3c2)CC1 | 5.99 | 6.00 | 6.52 | 6.55 | 6.41 |  |  |
| CCN(CC)Cc1ccc2nc(NC(=O)N/N=C/c3ccccc3O)sc2c1 | 5.24 | 5.39 | 4.95 | 5.77 | 5.74 |  |  |
| Cc1ccc(COc2ccc(/C=N/NC(=O)Nc3nc4ccc(N5CCOCC5)cc4s3)c(O)c2)cc1 | 5.60 | 5.80 | 4.71 | 6.12 | 6.28 |  |  |
| CN(C)Cc1ccc2nc(NC(=O)N/N=C/c3ccc(OCc4ccc(C(C)(C)C)cc4)cc3O)sc2c1 | 5.78 | 5.82 | 5.94 | 5.98 | 6.08 |  |  |
| Cc1ccc(COc2ccc(/C=N/NC(=O)Nc3nc4ccc(CN5CCC(C)CC5)cc4s3)c(O)c2)cc1 | 5.81 | 5.98 | 5.82 | 6.51 | 5.97 |  |  |
| CCN(CC)Cc1ccc2nc(NC(=O)N/N=C/c3ccc(O)cc3O)sc2c1 | 5.22 | 4.62 | 5.39 | 5.76 | 5.29 |  |  |
| CC1CCN(Cc2ccc3nc(NC(=O)N/N=C/c4ccc(OCc5ccccc5)cc4O)sc3c2)CC1 | 5.88 | 5.80 |  |  | 6.21 |  |  |
| CC1CCN(Cc2ccc3nc(NC(=O)N/N=C/c4ccccc4O)sc3c2)CC1 | 5.36 | 4.98 | 4.91 | 6.17 | 5.53 |  |  |
| CN(C)Cc1ccc2nc(NC(=O)N/N=C/c3ccc(OCc4ccc(Cl)cc4)cc3O)sc2c1 | 5.56 | 5.67 | 6.22 | 6.15 | 5.93 |  |  |
| CN(C)Cc1ccc2nc(NC(=O)N/N=C/c3ccc(OCc4cccc(Cl)c4)cc3O)sc2c1 | 5.92 | 5.53 | 6.27 | 6.72 | 6.44 |  |  |
| O=C(N/N=C/c1ccc(OCc2csc(Cc3ccc4c(c3)OCO4)n2)cc1O)Nc1nc2ccc(N3CCOCC3)cc2s1 | 5.21 | 5.64 | 5.39 | 6.00 | 5.67 |  |  |
| CN(C)Cc1ccc2nc(NC(=O)N/N=C/c3ccccc3O)sc2c1 | 5.29 | 5.22 | 5.23 | 5.81 | 5.69 |  |  |
| CCN(CC)Cc1ccc2nc(NC(=O)N/N=C/c3ccc(OCc4ccc(C)cc4)cc3O)sc2c1 | 5.84 | 5.88 | 6.15 | 6.24 | 6.00 |  |  |
| O=C(N/N=C/c1ccc(OCc2cccc(Cl)c2)cc1O)Nc1nc2ccc(N3CCOCC3)cc2s1 | 5.83 | 6.23 | 5.93 | 6.55 | 6.10 |  |  |
| CN(C)Cc1ccc2nc(NC(=O)N/N=C/c3ccc(OCc4ccccc4Cl)cc3O)sc2c1 | 5.53 | 5.79 | 6.17 | 6.48 | 6.24 |  |  |
